Consider one molecule from ChEMBL document CHEMBL4017479, “Design, synthesis and anticancer activity of novel nopinone-based thiosemicarbazone derivatives” (Bioorg Med Chem Lett, 2017).

In general, IC50 refers to the concentration that gives 50% inhibition. A lower IC50 goes with greater potency.

In one experiment the test system is HeLa. Briefly: cells. The following applies: Homo sapiens, 72 h.
The nature of experiment [1]: Cytotoxicity against HLF1 cells after 72 hrs by MTT assay. The format is functional, cell-based. The following applies: Homo sapiens, HLF1, 72 h. For orientation: Tetrazolium assays rely on reduction of a dye to a coloured formazan, in cell work by metabolically active cells.
The next experiment concerns MDA-MB-231. The experiment can be described thus: cells. The following applies: Homo sapiens, MDA-MB-231, 72 h.
Another experiment has as its system SMMC-7721. Briefly: Cytotoxicity against human SMMC7721 cells after 72 hrs by MTT assay. The experiment is classed as functional, cell-based. The following applies: SMMC-7721, 72 h.

Description for HeLa: Cytotoxicity against human HeLa cells after 72 hrs by MTT assay
Description for MDA-MB-231: Cytotoxicity against human MDA-MB-231 cells after 72 hrs by MTT assay

For `COc1cc([C@@H]2c3cc4c(cc3[C@@H](O[C@@H]3O[C@@H]5CO[C@@H](C)O[C@H]5[C@H](O)[C@H]3O)[C@H]3COC(=O)[C@H]23)OCO4)cc(OC)c1O` [ETOPOSIDE], the IC50 is 7.89 µM in the experiment on HeLa, greater than 40 µM in experiment [1], 29.3 µM in the experiment with MDA-MB-231 and 40.4 µM in the experiment on SMMC-7721.
